Measurements reported in patent US20220184222A1, “BICYCLE TOXIN CONJUGATES AND USES THEREOF” (BicycleTx Limited, priority 2019, published 2022).
Several values for one entry are separate records, joined by “and”; a condition that tells them apart may be missing. Equal values may be shown once. Entries after “also recorded” stand apart in the source; their conditions may differ. Starred links: 1 amine or outer side, 2 acyl side, 3 side chain; linkers in the order of their positions; H or OH if unused. Non-standard residues stand in square brackets, D forms with d. Residues, ends and D or L forms follow the SMILES beside them. *: point of attachment. Dolaproine = CO[C@@H]([C@@H]1CCCN1)[C@@H](C)C(=O)O; Dil = CC[C@H](C)[C@H](NC)[C@@H](CC(=O)O)OC; PABC = O=C(OCc1ccc(N[*:1])cc1)[*:2]; X1 = O=C(CCCC(=O)*)ON1C(=O)CCC1=O; X2 = C[C@@H](N*)[C@@H](O)c1ccccc1; Cit = NC(=O)NCCC[C@H](N)C(=O)O; NMeV = CN[C@H](C(=O)O)C(C)C

Tested on: PC-3 xenograft
Test: In vivo efficacy in PC-3 xenograft, female BALB/c nude mice (Example 2)
Design: species or system Mus Musculus
Protocol: The objective of the research was to evaluate the in vivo anti-tumor efficacy of BT5528 and BCY10188 in treatment of PC-3 xenograft model in BALB/c nude mice.
Each mouse was inoculated subcutaneously at the right flank with PC-3 tumor cells ([…]) in 0.2 ml of PBS for tumor development. 60 animals were randomized when the average tumor volume reached 464 mm^3. The test article administration and the animal numbers in each group were shown in the experimental design table.
1) 0.1 mg/mL solution (with 50 mM Acetate 10% sucrose pH 5 buffer) was prepared before the operation. 2) The syringe loaded with dosing solution was fixed on the Syringe Pump Machine, then a needle was bound to the pipe jointed with the syringe. 3) The injection volume (10 ml/kg, calculated based on the bodyweight), injection time (1 h for this study), and infusion rate was set to the Pump, then a quick running was conducted to check the working condition of the whole system. 4) The mouse was fixed comfortably, then the operator injected the syringe needle into the caudal vein, and fixed the mouse tail as well as the needle firmly and stably(no need anesthesia for less than 1 h) 5) Then the infusion was started, and the operator kept monitoring the dosing condition till the end.
1) 0.130 mg/mL solution (with 50 mM Acetate 10% sucrose pH 5 buffer) was prepared before the operation. 2) The pump was fully filled with the dosing solution (˜200 μl, see the hand book of the Alzet pump 2001D). 3) The animal in group 12 was anesthetized with 80 mg/kg pentobarbital sodium, and the pump was embedded under the skin of left side of mouse. 4) 26 h later, the animals were anesthetized with pentobarbital sodium, and the pump was taken out. (The infusion rate is not stable at the first 1-3 h, thus the pump was taken out at 26 h instead of 24 h to ensure that all solution was pumped-out).
The major endpoint was to see if the tumor growth could be delayed or mice could be cured. Tumor volume was measured 3 times per week in two dimensions using a caliper, and the volume was expressed in mm^3 using the formula: V=0.5 a×b^2 where a and b are the long and short diameters of the tumor, respectively. The tumor size was then used for calculations of T/C value. The T/C value (in percent) is an indication of antitumor effectiveness; T and C are the mean volumes of the treated and control groups, respectively, on a given day.
TGI was calculated for each group using the formula: TGI (%)=[1−(Ti−T0)/(Vi−V0)]×100; Ti is the average tumor volume of a treatment group on a given day, T0 is the average tumor volume of the treatment group on the day of treatment start, Vi is the average tumor volume of the vehicle control group on the same day with Ti, and V0 is the average tumor volume of the vehicle group on the day of treatment start.
Tumor growth inhibition rate of BT5528 and BCY10188 in the PC-3 xenograft model was calculated based on tumor volume measurements on day 17 after the start of treatment.

[1] = 1 mpk iv 1 h infusion qw*2 weeks, day 17
[2] = 1 mpk sc 24 h minipump qw*2 weeks, day 17

## CC[C@H](C)[C@@H]([C@@H](CC(=O)N1CCC[C@H]1[C@H](OC)[C@@H](C)C(=O)N[C@H](C)[C@@H](O)c1ccccc1)OC)N(C)C(=O)[C@@H](NC(=O)[C@H](C(C)C)N(C)C(=O)OCc1ccc(NC(=O)[C@H](CCCNC(N)=O)NC(=O)[C@@H](NC(=O)CCCC(=O)ON2C(=O)CCC2=O)C(C)C)cc1)C(C)C [BT5528] (X1-V[Cit][PABC][NMeV]V[Dil][Dolaproine]-X2)
1 mg/kg qw*2 weeks via intravenous bolus, intravenous infusion or subcutaneous ALZET pump
  tumor relapse after ceasing the treatment: obvious relapse 2 weeks later after ceasing the treatment
1 mg/kg, iv bolus (QW×2 and QW×4), 1 h iv infusion (QW×2), 24 h subcutaneous osmotic pump (QW×2)
  efficacy across dosing paradigms: equivalent efficacy with a wide range of dosing paradigms; also recorded: comparable anti-tumor activity
0.11 mpk iv qw*4 weeks, day 0
  Tumor volume: 463 mm^3
0.11 mpk iv qw*4 weeks, day 2
  Tumor volume: 634 mm^3
0.11 mpk iv qw*4 weeks, day 4
  Tumor volume: 725 mm^3
0.11 mpk iv qw*4 weeks, day 6
  Tumor volume: 861 mm^3
0.11 mpk iv qw*4 weeks, day 8
  Tumor volume: 1172 mm^3
0.11 mpk iv qw*4 weeks, day 10
  Tumor volume: 1247 mm^3
0.11 mpk iv qw*4 weeks, day 13
  Tumor volume: 1333 mm^3
0.11 mpk iv qw*4 weeks, day 15
  Tumor volume: 1568 mm^3
0.11 mpk iv qw*4 weeks, day 17
  T/C: 88.1%
  TGI: 15.3%
  Tumor volume: 1780 mm^3 and 1780 ± 116 mm^3
0.33 mpk iv qw*4 weeks, day 0
  Tumor volume: 463 mm^3
0.33 mpk iv qw*4 weeks, day 2
  Tumor volume: 597 mm^3
0.33 mpk iv qw*4 weeks, day 4
  Tumor volume: 530 mm^3
0.33 mpk iv qw*4 weeks, day 6
  Tumor volume: 525 mm^3
0.33 mpk iv qw*4 weeks, day 8
  Tumor volume: 584 mm^3
0.33 mpk iv qw*4 weeks, day 10
  Tumor volume: 536 mm^3
0.33 mpk iv qw*4 weeks, day 13
  Tumor volume: 493 mm^3
0.33 mpk iv qw*4 weeks, day 15
  Tumor volume: 544 mm^3
0.33 mpk iv qw*4 weeks, day 17
  T/C: 23.9%
  TGI: 98.8%
  Tumor volume: 482 mm^3 and 482 ± 22 mm^3
1 mpk iv 1 h infusion qw*2 weeks, day 0
  Tumor volume: 463 mm^3
1 mpk iv 1 h infusion qw*2 weeks, day 2
  Tumor volume: 538 mm^3
1 mpk iv 1 h infusion qw*2 weeks, day 4
  Tumor volume: 539 mm^3
1 mpk iv 1 h infusion qw*2 weeks, day 6
  Tumor volume: 467 mm^3
1 mpk iv 1 h infusion qw*2 weeks, day 8
  Tumor volume: 399 mm^3
1 mpk iv 1 h infusion qw*2 weeks, day 10
  Tumor volume: 330 mm^3
1 mpk iv 1 h infusion qw*2 weeks, day 13
  Tumor volume: 260 mm^3
1 mpk iv 1 h infusion qw*2 weeks, day 15
  Tumor volume: 213 mm^3
[1]
  T/C: 10.3%
  TGI: 116.4%
  Tumor volume: 209 mm^3 and 209 ± 27 mm^3
1 mpk iv qw*2 weeks, day 0
  Tumor volume: 464 mm^3
1 mpk iv qw*2 weeks, day 2
  Tumor volume: 572 mm^3
1 mpk iv qw*2 weeks, day 4
  Tumor volume: 529 mm^3
1 mpk iv qw*2 weeks, day 6
  Tumor volume: 496 mm^3
1 mpk iv qw*2 weeks, day 8
  Tumor volume: 427 mm^3
1 mpk iv qw*2 weeks, day 10
  Tumor volume: 361 mm^3
1 mpk iv qw*2 weeks, day 13
  Tumor volume: 269 mm^3
1 mpk iv qw*2 weeks, day 15
  Tumor volume: 239 mm^3
1 mpk iv qw*2 weeks, day 17
  T/C: 10.6%
  TGI: 116.0%
  Tumor volume: 214 mm^3 and 214 ± 33 mm^3
1 mpk iv qw*4 weeks, day 0
  Tumor volume: 463 mm^3
1 mpk iv qw*4 weeks, day 2
  Tumor volume: 610 mm^3
1 mpk iv qw*4 weeks, day 4
  Tumor volume: 579 mm^3
1 mpk iv qw*4 weeks, day 6
  Tumor volume: 538 mm^3
1 mpk iv qw*4 weeks, day 8
  Tumor volume: 476 mm^3
1 mpk iv qw*4 weeks, day 10
  Tumor volume: 408 mm^3
1 mpk iv qw*4 weeks, day 13
  Tumor volume: 341 mm^3
1 mpk iv qw*4 weeks, day 15
  Tumor volume: 299 mm^3
1 mpk iv qw*4 weeks, day 17
  T/C: 14.5%
  TGI: 111%
  Tumor volume: 282 mm^3 and 293 mm^3 and 293 ± 66 mm^3
1 mpk sc 24 h minipump qw*2 weeks, day 0
  Tumor volume: 464 mm^3
1 mpk sc 24 h minipump qw*2 weeks, day 2
  Tumor volume: 517 mm^3
1 mpk sc 24 h minipump qw*2 weeks, day 4
  Tumor volume: 64 mm^3
1 mpk sc 24 h minipump qw*2 weeks, day 6
  Tumor volume: 480 mm^3
1 mpk sc 24 h minipump qw*2 weeks, day 8
  Tumor volume: 443 mm^3
1 mpk sc 24 h minipump qw*2 weeks, day 10
  Tumor volume: 393 mm^3
1 mpk sc 24 h minipump qw*2 weeks, day 13
  Tumor volume: 298 mm^3
1 mpk sc 24 h minipump qw*2 weeks, day 15
  Tumor volume: 249 mm^3
[2]
  T/C: 11.1%
  TGI: 115.5%
  Tumor volume: 223 mm^3 and 223 ± 46 mm^3
3 mpk iv qw*4 weeks, day 0
  Tumor volume: 464 mm^3
3 mpk iv qw*4 weeks, day 2
  Tumor volume: 566 mm^3
3 mpk iv qw*4 weeks, day 4
  Tumor volume: 526 mm^3
3 mpk iv qw*4 weeks, day 6
  Tumor volume: 462 mm^3
3 mpk iv qw*4 weeks, day 8
  Tumor volume: 377 mm^3
3 mpk iv qw*4 weeks, day 10
  Tumor volume: 320 mm^3
3 mpk iv qw*4 weeks, day 13
  Tumor volume: 249 mm^3
3 mpk iv qw*4 weeks, day 15
  Tumor volume: 243 mm^3
3 mpk iv qw*4 weeks, day 17
  T/C: 10.2%
  TGI: 116.7%
  Tumor volume: 205 mm^3 and 205 ± 14 mm^3
